Assay results: PubChem BioAssay AID330 (DTP/NCI, 2004)
“And” between values parts separate entries of the source, which are not always exact repeats. Equal entries are not always repeated. Inconclusive results and toxic doses are left out.

Tested on: P388 leukemia ip, CD2F1 mice, survival T/C
Assay: NCI In Vivo Anticancer Drug Screen. Data for tumor model P388 Leukemia (intraperitoneal) in CD2F1 (CDF1) mice
Conditions: endpoint: median survival time, higher = longer survival
Outline: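 Mice carrying the transplanted tumor received test compound or vehicle. Survival was recorded in each group, and the value is the treated-group measurement divided by that of the vehicle-treated control group.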

[1] = dose: 3.0 mg/kg/injection, schedule: Q01DX009 (ip), vehicle: Klucel (hydroxypropylcellulose) (HPC)
[2] = dose: 0.75 mg/kg/injection, schedule: Q01DX009 (ip), vehicle: saline with Tween-80
[3] = dose: 60.0 mg/kg/injection, schedule: Q01DX005 (ip), vehicle: Klucel (hydroxypropylcellulose) (HPC)
[4] = dose: 120.0 mg/kg/injection, schedule: Q01DX005 (ip), vehicle: Klucel (hydroxypropylcellulose) (HPC)
[5] = dose: 240.0 mg/kg/injection, schedule: Q01DX005 (ip), vehicle: Klucel (hydroxypropylcellulose) (HPC)
[6] = dose: 12.5 mg/kg/injection, schedule: Q01DX005 (ip), vehicle: saline with Tween-80
[7] = dose: 25.0 mg/kg/injection, schedule: Q01DX005 (ip), vehicle: saline with Tween-80
[8] = dose: 50.0 mg/kg/injection, schedule: Q01DX005 (ip), vehicle: saline with Tween-80
[9] = dose: 100.0 mg/kg/injection, schedule: Q01DX005 (ip), vehicle: saline with Tween-80
[10] = dose: 200.0 mg/kg/injection, schedule: Q01DX005 (ip), vehicle: saline with Tween-80

COc1cccc2c1C(=O)c1c(O)c3c(c(O)c1C2=O)C[C@@](O)(C(=O)CO)C[C@@H]3OC1CC(N(C)C)C(O)C(C)O1 (some centres undefined) was tested, and the T/C (dose: 0.06 mg/kg/injection, schedule: Q01DX009 (ip), vehicle: water) was 108 % of control, the T/C (dose: 0.13 mg/kg/injection, schedule: Q01DX009 (ip), vehicle: water) was 119 % of control and the T/C (dose: 0.19 mg/kg/injection, schedule: Q04DX003 (ip), vehicle: water) was 104 % of control. For the same compound, the T/C (dose: 0.25 mg/kg/injection, schedule: Q01DX009 (ip), vehicle: water) was 150 % of control, the T/C (dose: 0.38 mg/kg/injection, schedule: Q04DX003 (ip), vehicle: water) was 100 % of control and the T/C (dose: 0.5 mg/kg/injection, schedule: Q01DX009 (ip), vehicle: water) was 160 % of control and 164 % of control. For the same compound, the T/C (dose: 0.75 mg/kg/injection, schedule: Q04DX003 (ip), vehicle: water) was 104 % of control, the T/C (dose: 0.86 mg/kg/injection, schedule: Q04DX003 (ip), vehicle: water) was 154 % of control and the T/C (dose: 1.44 mg/kg/injection, schedule: Q04DX003 (ip), vehicle: water) was 163 % of control. For the same compound, the T/C (dose: 1.5 mg/kg/injection, schedule: Q04DX003 (ip), vehicle: water) was 106 % of control, the T/C (dose: 2.0 mg/kg/injection, schedule: Q01DX009 (ip), vehicle: water) was 101 % of control and the T/C (dose: 2.4 mg/kg/injection, schedule: Q04DX003 (ip), vehicle: water) was 175 % of control. The T/C (dose: 2.5 mg/kg/injection, schedule: Q01DX001 (ip), vehicle: water) was 153 % of control, the T/C (dose: 3.0 mg/kg/injection, schedule: Q04DX003 (ip), vehicle: water) was 113 % of control and the T/C (dose: 4.0 mg/kg/injection, schedule: Q04DX003 (ip), vehicle: water) was 117 % of control. For the same compound, the T/C (dose: 5.0 mg/kg/injection, schedule: Q01DX001 (ip), vehicle: water) was 153 % of control, the T/C (dose: 6.0 mg/kg/injection, schedule: Q04DX003 (ip), vehicle: water) was 123 % of control and the T/C (dose: 6.67 mg/kg/injection, schedule: Q04DX003 (ip), vehicle: water) was 97 % of control.
For C=C1CCC2C(c3c(C)c(O)c4c(c31)C(=O)C(C)C4)C2(C)C (centres undefined), the T/C [1] was 110 % of control, the T/C (dose: 6.0 mg/kg/injection, schedule: Q01DX009 (ip), vehicle: Klucel (hydroxypropylcellulose) (HPC)) was 108 % of control and the T/C (dose: 12.0 mg/kg/injection, schedule: Q01DX009 (ip), vehicle: Klucel (hydroxypropylcellulose) (HPC)) was 103 % of control. The T/C (dose: 24.0 mg/kg/injection, schedule: Q01DX009 (ip), vehicle: Klucel (hydroxypropylcellulose) (HPC)) was 108 % of control.
With N#CC12c3ccccc3C(c3ccccc31)C1C(=O)C=CC(=O)C12 (centres undefined) the T/C (dose: 12.5 mg/kg/injection, schedule: Q01DX009 (ip), vehicle: saline) was 111 % of control, the T/C (dose: 25.0 mg/kg/injection, schedule: Q01DX009 (ip), vehicle: saline) was 106 % of control and the T/C (dose: 50.0 mg/kg/injection, schedule: Q01DX009 (ip), vehicle: saline) was 92 % of control and 96 % of control.
In the case of COC(=N)CCCCC(=N)OC, the T/C (dose: 50.0 mg/kg/injection, schedule: Q01DX005 (ip), vehicle: saline) is reported as 92 % of control, the T/C (dose: 100.0 mg/kg/injection, schedule: Q01DX005 (ip), vehicle: saline) is reported as 97 % of control and the T/C (dose: 200.0 mg/kg/injection, schedule: Q01DX005 (ip), vehicle: saline) is reported as 101 % of control.
O=S1(=O)CC2(N3CCOCC3)CCCCCC21 (centres undefined) was tested, and the T/C (dose: 100.0 mg/kg/injection, schedule: Q04DX003 (ip), vehicle: saline with Tween-80) was 103 % of control, the T/C (dose: 200.0 mg/kg/injection, schedule: Q04DX003 (ip), vehicle: saline with Tween-80) was 100 % of control and the T/C (dose: 400.0 mg/kg/injection, schedule: Q04DX003 (ip), vehicle: saline with Tween-80) was 100 % of control.
In the case of C[CH2][Sn]([F])([CH2]C)[CH2]C, the T/C (dose: 0.37 mg/kg/injection, schedule: Q01DX009 (ip), vehicle: saline with Tween-80) is reported as 90 % of control, the T/C (dose: 0.38 mg/kg/injection, schedule: Q01DX009 (ip), vehicle: Klucel (hydroxypropylcellulose) (HPC)) is reported as 101 % of control and 96 % of control and the T/C (dose: 0.75 mg/kg/injection, schedule: Q01DX009 (ip), vehicle: Klucel (hydroxypropylcellulose) (HPC)) is reported as 104 % of control and 108 % of control and 96 % of control. For the same compound, the T/C [2] was 105 % of control, the T/C (dose: 1.5 mg/kg/injection, schedule: Q01DX009 (ip), vehicle: Klucel (hydroxypropylcellulose) (HPC)) was 102 % of control and 103 % of control and 114 % of control and the T/C (dose: 1.5 mg/kg/injection, schedule: Q01DX009 (ip), vehicle: saline with Tween-80) was 100 % of control. For the same compound, the T/C [1] was 109 % of control and 116 % of control.
CC1(C)N=NC([Si](C)(C)C)=C1C(=O)c1ccccc1 was tested, and the T/C [3] was 101 % of control, the T/C [4] was 98 % of control and the T/C [5] was 105 % of control.
For C=C(C)C(=O)N(C)C(C)C(=O)OC1CC(=O)N(C)c2cc(cc(OC)c2Cl)C(OC)C(C)=C/C=C/C(OC)C2(O)CC(OC(=O)N2)C(C)C2OC12C (centres undefined), the T/C (dose: 8.0 micrograms/kg/injection, schedule: Q01DX009 (ip), vehicle: saline) was 172 % of control.
With Cc1ccc2c(c1)N=C(OCCCN(C)C)/C(=C/c1ccccc1)O2 the T/C (dose: 50.0 mg/kg/injection, schedule: Q04DX002 (ip), vehicle: Klucel (hydroxypropylcellulose) (HPC)) was 105 % of control, the T/C (dose: 100.0 mg/kg/injection, schedule: Q04DX002 (ip), vehicle: Klucel (hydroxypropylcellulose) (HPC)) was 99 % of control and the T/C (dose: 200.0 mg/kg/injection, schedule: Q04DX002 (ip), vehicle: Klucel (hydroxypropylcellulose) (HPC)) was 101 % of control.
With C=[CH][Sn][CH2]CCC the T/C (dose: 100.0 mg/kg/injection, schedule: Q01DX009 (ip), vehicle: Klucel (hydroxypropylcellulose) (HPC)) was 112 % of control.
With CC(=O)OC1C=C2C(=O)OCC2(O)C2(C)CCCC(C)(C)C12 (centres undefined) the T/C (dose: 3.12 mg/kg/injection, schedule: Q01DX009 (ip), vehicle: other) was 102 % of control, the T/C (dose: 6.25 mg/kg/injection, schedule: Q01DX009 (ip), vehicle: other) was 100 % of control and the T/C (dose: 12.5 mg/kg/injection, schedule: Q01DX009 (ip), vehicle: other) was 102 % of control.
With CCOc1ccc2c(c1)n([O-])c1cc(Cl)ccc1[n+]2=O the T/C [6] was 111 % of control, the T/C [7] was 108 % of control and the T/C [8] was 103 % of control and 115 % of control. The T/C [9] was 107 % of control.
With O=C(OC1CC2CCC(C1)S2)c1ccco1 (centres undefined) the T/C (dose: 50.0 mg/kg/injection, schedule: Q04DX002 (ip), vehicle: saline with Tween-80) was 109 % of control, the T/C (dose: 100.0 mg/kg/injection, schedule: Q04DX002 (ip), vehicle: saline with Tween-80) was 109 % of control and the T/C (dose: 200.0 mg/kg/injection, schedule: Q04DX002 (ip), vehicle: saline with Tween-80) was 110 % of control.
In the case of OC1CC2CCC(N2)C1c1ccccc1 (centres undefined), the T/C [6] is reported as 94 % of control, the T/C [7] is reported as 86 % of control and the T/C [8] is reported as 101 % of control and 93 % of control.
For COc1ccc(C(c2cc3c(cc2O)OCO3)N2CCCC2)c(OC)c1 (centres undefined), the T/C [3] was 111 % of control and the T/C [4] was 118 % of control.
In the case of CC1=C(c2ccccc2)C(=O)OC1(c1ccccc1)c1ccccc1, the T/C (dose: 50.0 mg/kg/injection, schedule: Q01DX001 (ip), vehicle: Klucel (hydroxypropylcellulose) (HPC)) is reported as 91 % of control, the T/C (dose: 100.0 mg/kg/injection, schedule: Q01DX001 (ip), vehicle: Klucel (hydroxypropylcellulose) (HPC)) is reported as 88 % of control and the T/C (dose: 200.0 mg/kg/injection, schedule: Q01DX001 (ip), vehicle: Klucel (hydroxypropylcellulose) (HPC)) is reported as 89 % of control.
With CCOC(=O)C1=C(C)NC(C)=C(C(=O)OCC)C1(C)C the T/C [8] was 104 % of control, the T/C [9] was 100 % of control and the T/C [10] was 100 % of control.
For CCc1ccc2c(-c3ccccc3)c3ccccc3c(-c3ccccc3)c2c1, the T/C [6] was 96 % of control, the T/C [7] was 99 % of control and the T/C [8] was 88 % of control and 90 % of control. For the same compound, the T/C [9] was 90 % of control and the T/C [10] was 88 % of control.
OCc1c(CO)c(-c2ccc(Cl)c(Cl)c2)n2c1CCC2 was tested, and the T/C (dose: 13.5 mg/kg/injection, schedule: Q01DX009 (ip), vehicle: saline with Tween-80) was 107 % of control, the T/C (dose: 27.0 mg/kg/injection, schedule: Q01DX009 (ip), vehicle: saline with Tween-80) was 109 % of control and the T/C (dose: 54.0 mg/kg/injection, schedule: Q01DX009 (ip), vehicle: saline with Tween-80) was 109 % of control. For the same compound, the T/C (dose: 100.0 mg/kg/injection, schedule: Q01DX009 (ip), vehicle: saline with Tween-80) was 116 % of control and 118 % of control and the T/C (dose: 200.0 mg/kg/injection, schedule: Q01DX009 (ip), vehicle: saline with Tween-80) was 116 % of control.
S=C(S)NCCCn1ccnc1 was tested, and the T/C [8] was 117 % of control, the T/C [9] was 109 % of control and the T/C [10] was 110 % of control.
With [C-]#[N+]C1CCCCC1.[C-]#[N+]C1CCCCC1.[C-]#[N+]C1CCCCC1.[C-]#[N+]C1CCCCC1.[C-]#[N+]C1CCCCC1.[C-]#[N+]C1CCCCC1.[Mn] the T/C [2] was 155 % of control and 159 % of control.
For COc1ccc2c3c([nH]c2c1)C1CC2C(CC(O)C(OC)C2C(=O)O)CN1CC3 (centres undefined), the T/C [3] was 100 % of control, the T/C [4] was 100 % of control and the T/C [5] was 106 % of control.
